According to patent US6114310A, “Efflux pump inhibitors” (priority 1998, dated 2000):

Tested on: Pseudomonas aeruginosa PAM1001
Experiment: microbe, parasite or virus in culture
Type: cell-based
Summary of the method: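 Checkerboard broth microdilution (NCCLS) with the efflux pump inhibitor and levofloxacin, each diluted along one axis of the plate, in Mueller Hinton Broth. Inoculum 5×10^5 CFU/ml from early-log culture; incubation 20 h at 35° C. Growth read at 650 nm and visually.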

[1] = Table 1, EPI Conc. μg/ml (number not given; column between 10 and 40 μg/ml)
[2] = Table 2, EPI Conc. μg/ml (number not given; column between 10 and 40 μg/ml)
[3] = Table 3, EPI Conc. μg/ml (number not given; column between 10 and 40 μg/ml)
[4] = Table 4, EPI Conc. μg/ml (number not given; column between 10 and 40 μg/ml)

Substance	Levofloxacin MIC Against P. aeruginosa PAM1001 in Presence of Efflux Pump Inhibitor (EPI), Minimum Inhibitory Concentration (Table 1, EPI Conc. 0 μg/ml) [µg/mL]	Levofloxacin MIC Against P. aeruginosa PAM1001 in Presence of Efflux Pump Inhibitor (EPI), Minimum Inhibitory Concentration (Table 1, EPI Conc. 0.625 μg/ml) [µg/mL]	Levofloxacin MIC Against P. aeruginosa PAM1001 in Presence of Efflux Pump Inhibitor (EPI), Minimum Inhibitory Concentration (Table 1, EPI Conc. 5 μg/ml) [µg/mL]	Levofloxacin MIC Against P. aeruginosa PAM1001 in Presence of Efflux Pump Inhibitor (EPI), Minimum Inhibitory Concentration (Table 1, EPI Conc. 10 μg/ml) [µg/mL]	Levofloxacin MIC Against P. aeruginosa PAM1001 in Presence of Efflux Pump Inhibitor (EPI), Minimum Inhibitory Concentration (Table 1, EPI Conc. 40 μg/ml) [µg/mL]	Levofloxacin MIC Against P. aeruginosa PAM1001 in Presence of Efflux Pump Inhibitor (EPI), Minimum Inhibitory Concentration (Table 1, EPI Conc. […]) [µg/mL]	Levofloxacin MIC Against P. aeruginosa PAM1001 in Presence of Efflux Pump Inhibitor (EPI), Minimum Inhibitory Concentration [1] [µg/mL]	Levofloxacin MIC Against P. aeruginosa PAM1001 in Presence of Efflux Pump Inhibitor (EPI), Minimum Inhibitory Concentration (Table 2, EPI Conc. 0 μg/ml) [µg/mL]	Levofloxacin MIC Against P. aeruginosa PAM1001 in Presence of Efflux Pump Inhibitor (EPI), Minimum Inhibitory Concentration (Table 2, EPI Conc. 0.625 μg/ml) [µg/mL]	Levofloxacin MIC Against P. aeruginosa PAM1001 in Presence of Efflux Pump Inhibitor (EPI), Minimum Inhibitory Concentration (Table 2, EPI Conc. 5 μg/ml) [µg/mL]	Levofloxacin MIC Against P. aeruginosa PAM1001 in Presence of Efflux Pump Inhibitor (EPI), Minimum Inhibitory Concentration (Table 2, EPI Conc. 10 μg/ml) [µg/mL]	Levofloxacin MIC Against P. aeruginosa PAM1001 in Presence of Efflux Pump Inhibitor (EPI), Minimum Inhibitory Concentration (Table 2, EPI Conc. 40 μg/ml) [µg/mL]	Levofloxacin MIC Against P. aeruginosa PAM1001 in Presence of Efflux Pump Inhibitor (EPI), Minimum Inhibitory Concentration [2] [µg/mL]	Levofloxacin MIC Against P. aeruginosa PAM1001 in Presence of Efflux Pump Inhibitor (EPI), Minimum Inhibitory Concentration (Table 3, EPI Conc. 0 μg/ml) [µg/mL]	Levofloxacin MIC Against P. aeruginosa PAM1001 in Presence of Efflux Pump Inhibitor (EPI), Minimum Inhibitory Concentration (Table 3, EPI Conc. 0.625 μg/ml) [µg/mL]	Levofloxacin MIC Against P. aeruginosa PAM1001 in Presence of Efflux Pump Inhibitor (EPI), Minimum Inhibitory Concentration (Table 3, EPI Conc. 5 μg/ml) [µg/mL]	Levofloxacin MIC Against P. aeruginosa PAM1001 in Presence of Efflux Pump Inhibitor (EPI), Minimum Inhibitory Concentration (Table 3, EPI Conc. 10 μg/ml) [µg/mL]	Levofloxacin MIC Against P. aeruginosa PAM1001 in Presence of Efflux Pump Inhibitor (EPI), Minimum Inhibitory Concentration [3] [µg/mL]	Levofloxacin MIC Against P. aeruginosa PAM1001 in Presence of Efflux Pump Inhibitor (EPI), Minimum Inhibitory Concentration (Table 4, EPI Conc. 0 μg/ml) [µg/mL]	Levofloxacin MIC Against P. aeruginosa PAM1001 in Presence of Efflux Pump Inhibitor (EPI), Minimum Inhibitory Concentration (Table 4, EPI Conc. 0.625 μg/ml) [µg/mL]	further results
D-Lysyl-β-N-(3,3-Dimethylbutyl)alanine 2-Naphthylamide Trifluoroacetate [Example 30]	4	4	4	2	0.03	4	0.50	4	4	0.25	0.03	0.03	0.03	4	4	0.25	0.015	0.015	4	4	Levofloxacin MIC Against P. aeruginosa PAM1001 in Presence of Efflux Pump Inhibitor (EPI), Minimum Inhibitory Concentration (Table 3, EPI Conc. 40 μg/ml): 0.015 µg/mL; Levofloxacin MIC Against P. aeruginosa PAM1001 in Presence of Efflux Pump Inhibitor (EPI), Minimum Inhibitory Concentration (Table 4, EPI Conc. 5 μg/ml): 0.03 µg/mL; Levofloxacin MIC Against P. aeruginosa PAM1001 in Presence of Efflux Pump Inhibitor (EPI), Minimum Inhibitory Concentration (Table 4, EPI Conc. 10 μg/ml): 0.03 µg/mL; Levofloxacin MIC Against P. aeruginosa PAM1001 in Presence of Efflux Pump Inhibitor (EPI), Minimum Inhibitory Concentration (Table 4, EPI Conc. 40 μg/ml): 0.015 µg/mL; Levofloxacin MIC Against P. aeruginosa PAM1001 in Presence of Efflux Pump Inhibitor (EPI), Minimum Inhibitory Concentration [4]: 0.03 µg/mL
D-Ornithyl-β-(N-phenylpropyl)alanine 2-naphthylamide [Compound 20 (Table 3)]	4	4	4	2	0.25	4	1	4	4	2	1	0.03	0.50	4	4	2	0.50	0.03	4	4	Levofloxacin MIC Against P. aeruginosa PAM1001 in Presence of Efflux Pump Inhibitor (EPI), Minimum Inhibitory Concentration (Table 2, EPI Conc. […]): 4 µg/mL; Levofloxacin MIC Against P. aeruginosa PAM1001 in Presence of Efflux Pump Inhibitor (EPI), Minimum Inhibitory Concentration (Table 3, EPI Conc. 40 μg/ml): 0.015 µg/mL; Levofloxacin MIC Against P. aeruginosa PAM1001 in Presence of Efflux Pump Inhibitor (EPI), Minimum Inhibitory Concentration (Table 3, EPI Conc. […]): 4 µg/mL; Levofloxacin MIC Against P. aeruginosa PAM1001 in Presence of Efflux Pump Inhibitor (EPI), Minimum Inhibitory Concentration (Table 4, EPI Conc. 5 μg/ml): 2 µg/mL; Levofloxacin MIC Against P. aeruginosa PAM1001 in Presence of Efflux Pump Inhibitor (EPI), Minimum Inhibitory Concentration (Table 4, EPI Conc. 10 μg/ml): 2 µg/mL; Levofloxacin MIC Against P. aeruginosa PAM1001 in Presence of Efflux Pump Inhibitor (EPI), Minimum Inhibitory Concentration (Table 4, EPI Conc. 40 μg/ml): 1 µg/mL; Levofloxacin MIC Against P. aeruginosa PAM1001 in Presence of Efflux Pump Inhibitor (EPI), Minimum Inhibitory Concentration (Table 4, EPI Conc. […]): 4 µg/mL; Levofloxacin MIC Against P. aeruginosa PAM1001 in Presence of Efflux Pump Inhibitor (EPI), Minimum Inhibitory Concentration [4]: 2 µg/mL
D-Ornithyl-D-phenylalanine quinoline-3-amide [Compound 7 (Table 2)]	4	4	4	2	0.50	4	1	4	4	0.25	0.06	0.06	0.06	4	4	0.015	0.015	0.03	4	4	Levofloxacin MIC Against P. aeruginosa PAM1001 in Presence of Efflux Pump Inhibitor (EPI), Minimum Inhibitory Concentration (Table 4, EPI Conc. 5 μg/ml): 0.06 µg/mL; Levofloxacin MIC Against P. aeruginosa PAM1001 in Presence of Efflux Pump Inhibitor (EPI), Minimum Inhibitory Concentration (Table 4, EPI Conc. 10 μg/ml): 0.03 µg/mL; Levofloxacin MIC Against P. aeruginosa PAM1001 in Presence of Efflux Pump Inhibitor (EPI), Minimum Inhibitory Concentration (Table 4, EPI Conc. 40 μg/ml): 0.03 µg/mL; Levofloxacin MIC Against P. aeruginosa PAM1001 in Presence of Efflux Pump Inhibitor (EPI), Minimum Inhibitory Concentration [4]: 0.03 µg/mL
